This note sets out measurements from patent US20240018118A1, “TRICYCLIC COMPOUNDS TO DEGRADE NEOSUBSTRATES FOR MEDICAL THERAPY” (C 4 Therapeutics, Inc., priority 2020, published 2024).

One test deals with SALL4 (Homo sapiens, UniProt Q96SW2+Q9UJQ4). Kind of test: HiBiT degradation assay, KELLY.2 (SALL4-HiBiT) cells. It is filed as cell-based. Conditions: for DC50: KELLY.2 cells, 6 hours; for Emax: read-out: HiBiT-Degradation KELLY.2 SALL4 6 hours Emax, KELLY.2 cells. Here is the method: RPMI 1640 Medium without phenol red, fetal bovine serum (FBS), and Sodium Pyruvate (100 mM) were purchased from Gibco (Grand Island, NY, USA). Nano-Glo® HiBiT Lytic Assay System was purchased from Promega (Madison, WI, USA). […] Cell culture flasks and 384-well microplates were acquired from VWR (Radnor, PA, USA).
SALL4 degradation was determined based on quantification of luminescent signal using Nano-Glo® HiBiT Lytic Assay kit. Test compounds were added to the 384-well plate from a top concentration of 10 μM with 11 points, half log titration in duplicates. KELLY.2 cells were added into 384-well plates at a cell density of 6000 cells per well. The plates were kept at 37° C. with 5% CO2 for 6 hours. The cells treated in the absence of the test compound were the negative control and the cells without Nano-Glo® HiBiT Lytic reagent were the positive control. After 6-hour incubation, Nano-Glo® HiBiT Lytic Assay reagents were added to the cells. Luminescence was acquired on EnVision™ Multilabel Reader (PerkinElmer, Santa Clara, CA, USA).
On the technique in general: With HiBiT, luminescence reflects the tagged protein that the partner subunit can reach.

A further test addresses GSPT1 (Homo sapiens, UniProt P15170+Q96SW2). Put plainly: HiBiT degradation assay, 293T.114 cells, GSPT1. Format: cell-based. As for the experimental part:
GSPT1 degradation was determined based on quantification of luminescent signal using Nano-Glo® HiBiT Lytic Assay kit. Test compounds were added to the 384-well plate from a top concentration of 10 μM with 5 points, 3-fold titration in quadruplicates. 293T.114 cells were added into 384-well plates at a cell density of 6000 cells per well. […] The cells treated in the absence of the test compound were the negative control and the cells without Nano-Glo® HiBiT Lytic reagent were the positive control. […] Luminescence was acquired on EnVision™ Multilabel Reader (PerkinElmer, Santa Clara, CA, USA).

For a further test, the target named is T1, IKZF1 (Homo sapiens, UniProt Q13422+Q96SW2).
T1 construct: endogenously expressing IKZF1 with HiBiT fusion tag via CRISPR; endogenous in cells; host or cells: NCIH929.11 (CRISPR knock-in)
Kind of test: HiBiT degradation assay, NCIH929.11 (HiBiT-IKZF1) cells. The following applies: for DC50: NCHI929.11 cells, 6 hours; for Emax: read-out: HiBiT-Degradation NCHI929.11 IKZF1 6 hours Emax, NCHI929.11 cells. Format: cell-based. Here is the method: RPMI no-phenol red medium and fetal bovine serum (FBS) were purchased from Gibco (Grand Island, NY, USA). Nano-Glo® HiBiT Lytic Assay System was purchased from Promega (Madison, WI, USA). NCIH929.11 (HiBiT-IKZF1) cell line was generated in house, endogenously expressing IKZF1 with HiBiT fusion tag via CRISPR. Cell culture flasks and 384-well microplates were acquired from VWR (Radnor, PA, USA).
IKZF 1 degradation was determined based on quantification of luminescent signal using Nano-Glo® HiBiT Lytic Assay kit. Test compounds were added to the 384-well plate from a top concentration of 10 μM with 11 points, half-log titration in duplicates. NCIH929.11 cells expressing HiBiT-tagged TKZF1 were added into 384-well plates in RPMI medium containing 10% FBS and 0.05 mM 2-mercaptoethanol at a cell density of 15000 cells per well. The plates were kept at 37° C. with […] for 6 hours. Cells treated in the absence of the test compound were the negative control and wells containing media only were the positive control. After 6-hour incubation, Nano-Glo® HiBiT Lytic Assay reagents were added to the designated wells. Luminescence was acquired on EnVision™ Multilabel Reader (PerkinElmer, Santa Clara, CA, USA).

For the next test, the target named is T2, CRBN (Homo sapiens, UniProt Q96SW2).
T2 construct: expressed in transfected cells; host or cells: 293T (line named 293T.116)
Kind of test: NanoBRET CRBN binding, 293T.116 cells. Conditions: 2 hours.

[1] abbreviates: 293T.114 cells, 6 hours, read-out: HiBiT-Degradation 293T.114 GSPT1 6 hours DC50.
Where [2] appears, read: read-out: HiBiT-Degradation 293T.114 GSPT1 6 hours Emax, 293T.114 cells, 6 hours.

Like-named read-outs stand apart in the source and are kept apart here. A value given as a limit tells only on which side of the number the result lay.

T2 sequence (Q96SW2 whole entry): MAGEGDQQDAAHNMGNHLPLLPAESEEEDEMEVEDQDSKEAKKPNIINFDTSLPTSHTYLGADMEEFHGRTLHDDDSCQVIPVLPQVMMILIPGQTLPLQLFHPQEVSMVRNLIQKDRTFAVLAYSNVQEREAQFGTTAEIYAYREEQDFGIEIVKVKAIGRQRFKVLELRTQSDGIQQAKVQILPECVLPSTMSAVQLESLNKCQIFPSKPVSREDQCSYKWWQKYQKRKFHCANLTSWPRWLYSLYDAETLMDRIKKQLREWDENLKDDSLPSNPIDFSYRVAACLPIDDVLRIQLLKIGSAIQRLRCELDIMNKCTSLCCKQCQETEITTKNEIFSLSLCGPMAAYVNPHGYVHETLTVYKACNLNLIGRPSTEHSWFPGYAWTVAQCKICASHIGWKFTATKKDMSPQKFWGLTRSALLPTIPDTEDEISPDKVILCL
T2 sequence (Q16531 2-1140 partner limits assumed): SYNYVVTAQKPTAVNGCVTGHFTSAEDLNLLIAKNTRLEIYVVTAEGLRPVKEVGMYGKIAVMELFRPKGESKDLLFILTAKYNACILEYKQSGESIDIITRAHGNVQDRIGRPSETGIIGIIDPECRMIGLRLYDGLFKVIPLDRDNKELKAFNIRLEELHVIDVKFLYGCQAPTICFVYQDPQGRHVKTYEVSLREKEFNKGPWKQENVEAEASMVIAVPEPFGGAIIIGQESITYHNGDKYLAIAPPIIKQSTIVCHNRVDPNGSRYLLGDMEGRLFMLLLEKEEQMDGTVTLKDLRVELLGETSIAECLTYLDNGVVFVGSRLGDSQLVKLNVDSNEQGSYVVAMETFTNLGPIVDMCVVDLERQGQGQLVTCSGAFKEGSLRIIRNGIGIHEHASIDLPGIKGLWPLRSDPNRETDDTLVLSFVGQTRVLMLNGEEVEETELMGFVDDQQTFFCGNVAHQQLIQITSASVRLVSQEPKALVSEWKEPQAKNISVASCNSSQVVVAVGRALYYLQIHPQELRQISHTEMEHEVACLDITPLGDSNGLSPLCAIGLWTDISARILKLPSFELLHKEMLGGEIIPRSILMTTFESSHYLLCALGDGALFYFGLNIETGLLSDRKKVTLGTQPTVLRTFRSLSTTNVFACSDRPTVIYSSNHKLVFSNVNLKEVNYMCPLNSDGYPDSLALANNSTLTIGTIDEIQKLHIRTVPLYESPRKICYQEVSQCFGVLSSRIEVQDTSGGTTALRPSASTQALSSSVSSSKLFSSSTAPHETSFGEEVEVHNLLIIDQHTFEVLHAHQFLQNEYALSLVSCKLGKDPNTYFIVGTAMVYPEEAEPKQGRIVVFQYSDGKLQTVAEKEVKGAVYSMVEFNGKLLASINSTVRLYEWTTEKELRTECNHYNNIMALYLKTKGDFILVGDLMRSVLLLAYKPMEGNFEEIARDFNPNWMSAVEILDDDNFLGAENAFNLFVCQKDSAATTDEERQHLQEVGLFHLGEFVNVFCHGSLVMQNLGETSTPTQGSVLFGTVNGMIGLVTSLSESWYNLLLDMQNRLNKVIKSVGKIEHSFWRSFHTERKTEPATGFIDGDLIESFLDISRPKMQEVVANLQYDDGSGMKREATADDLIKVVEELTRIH
Chain of SALL4 (Q9UJQ4 whole entry): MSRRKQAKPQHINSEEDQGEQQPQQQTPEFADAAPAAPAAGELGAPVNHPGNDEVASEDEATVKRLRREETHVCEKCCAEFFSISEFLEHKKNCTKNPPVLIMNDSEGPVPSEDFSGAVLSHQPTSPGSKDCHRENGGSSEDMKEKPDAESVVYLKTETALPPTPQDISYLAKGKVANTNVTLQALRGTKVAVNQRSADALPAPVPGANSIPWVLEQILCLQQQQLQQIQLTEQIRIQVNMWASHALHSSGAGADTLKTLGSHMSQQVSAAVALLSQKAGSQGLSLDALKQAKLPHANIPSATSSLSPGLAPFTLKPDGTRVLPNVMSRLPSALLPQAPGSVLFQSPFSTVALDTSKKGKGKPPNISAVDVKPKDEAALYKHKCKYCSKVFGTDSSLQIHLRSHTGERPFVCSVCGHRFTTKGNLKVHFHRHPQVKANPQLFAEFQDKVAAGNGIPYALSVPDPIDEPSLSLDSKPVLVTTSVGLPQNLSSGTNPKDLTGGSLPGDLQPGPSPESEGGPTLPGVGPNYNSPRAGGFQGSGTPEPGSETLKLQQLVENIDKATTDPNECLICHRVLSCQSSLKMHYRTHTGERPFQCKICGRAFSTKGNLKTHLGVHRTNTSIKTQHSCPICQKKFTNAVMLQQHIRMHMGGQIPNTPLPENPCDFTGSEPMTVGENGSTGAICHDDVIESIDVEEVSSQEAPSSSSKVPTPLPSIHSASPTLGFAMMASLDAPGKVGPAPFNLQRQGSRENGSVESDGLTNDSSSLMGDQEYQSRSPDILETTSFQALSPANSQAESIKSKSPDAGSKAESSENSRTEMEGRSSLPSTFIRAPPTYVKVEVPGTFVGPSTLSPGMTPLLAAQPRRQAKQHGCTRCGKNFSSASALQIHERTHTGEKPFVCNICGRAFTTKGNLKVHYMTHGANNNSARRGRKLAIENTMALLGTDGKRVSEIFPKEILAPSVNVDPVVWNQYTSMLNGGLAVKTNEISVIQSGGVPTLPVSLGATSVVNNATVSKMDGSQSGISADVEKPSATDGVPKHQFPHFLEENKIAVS
Chain of SALL4 (Q96SW2 whole entry): as the sequence (Q96SW2 whole entry) above
Chain of SALL4 (Q16531 2-1140 partner limits assumed): as the sequence (Q16531 2-1140 partner limits assumed) above
T1 sequence (Q13422 whole entry, the tested form may be a part): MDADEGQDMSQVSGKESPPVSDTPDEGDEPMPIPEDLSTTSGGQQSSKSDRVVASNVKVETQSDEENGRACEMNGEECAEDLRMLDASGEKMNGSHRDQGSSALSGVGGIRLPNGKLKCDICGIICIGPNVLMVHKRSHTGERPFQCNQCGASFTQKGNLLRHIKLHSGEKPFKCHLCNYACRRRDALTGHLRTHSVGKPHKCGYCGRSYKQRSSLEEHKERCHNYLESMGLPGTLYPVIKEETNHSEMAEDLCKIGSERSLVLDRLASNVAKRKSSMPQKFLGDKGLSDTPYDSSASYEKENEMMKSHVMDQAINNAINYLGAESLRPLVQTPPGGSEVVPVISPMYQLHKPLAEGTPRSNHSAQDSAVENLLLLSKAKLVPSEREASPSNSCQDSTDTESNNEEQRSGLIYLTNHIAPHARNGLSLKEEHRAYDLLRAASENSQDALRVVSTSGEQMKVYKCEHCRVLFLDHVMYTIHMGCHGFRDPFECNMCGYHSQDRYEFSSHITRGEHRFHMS
T1 sequence (Q96SW2 whole entry, the tested form may be a part): as the sequence (Q96SW2 whole entry) above
T1 sequence (Q16531 2-1140 partner limits assumed): as the sequence (Q16531 2-1140 partner limits assumed) above
Chain of GSPT1 (P15170 whole entry): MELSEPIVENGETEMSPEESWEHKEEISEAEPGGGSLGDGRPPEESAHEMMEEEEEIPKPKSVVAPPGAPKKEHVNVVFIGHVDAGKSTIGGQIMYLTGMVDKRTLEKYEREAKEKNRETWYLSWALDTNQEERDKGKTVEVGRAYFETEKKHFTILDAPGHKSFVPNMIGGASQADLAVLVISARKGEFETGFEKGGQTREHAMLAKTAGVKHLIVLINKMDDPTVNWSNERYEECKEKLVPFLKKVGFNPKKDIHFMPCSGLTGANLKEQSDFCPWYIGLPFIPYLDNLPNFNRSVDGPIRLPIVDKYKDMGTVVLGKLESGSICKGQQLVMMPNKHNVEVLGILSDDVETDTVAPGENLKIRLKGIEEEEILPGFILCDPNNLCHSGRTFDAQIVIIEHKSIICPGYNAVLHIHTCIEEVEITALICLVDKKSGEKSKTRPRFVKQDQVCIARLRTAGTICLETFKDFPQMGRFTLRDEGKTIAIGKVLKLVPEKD
Chain of GSPT1 (Q96SW2 whole entry): as the sequence (Q96SW2 whole entry) above
Chain of GSPT1 (Q16531 2-1140 partner limits assumed): as the sequence (Q16531 2-1140 partner limits assumed) above

Usually DC50 stands for the midpoint of the concentration-degradation curve. As usually defined, the Emax is the size of the effect at its maximum, as opposed to the concentration needed. As to `Cc1cc(C)nc(-c2ccc3c4c(cccc24)N(C2CCC(=O)NC2=O)C3=O)n1` (centres unmarked) [Compound 87, 3-[5-(4,6-dimethylpyrimidin-2-yl)-2-oxo-benzo[cd]indol-1-yl]piperidine-2,6-dione], the DC50 at SALL4 is below 100 nM; at GSPT1 (setting [1]), above 100 nM. In addition, the maximum response (Emax) on SALL4 is below 45%; at GSPT1 (setting [2]), 60 to 95%.

With `CC(C)(C)OC(=O)N1CCC(n2cc(Cc3ccc4c5c(cccc35)C(=O)N4[C@H]3CCC(=O)NC3=O)cn2)CC1` [Compound 197, tert-butyl 4-[4-[[1-[(3S)-2,6-dioxo-3-piperidyl]-2-oxo-benzo[cd]indol-6-yl]methyl]pyrazol-1-yl]piperidine-1-carboxylate], the values for the DC50 at SALL4, at IKZF1 and on GSPT1 (setting [1]) were below 100 nM, below 100 nM and above 10000 nM, respectively. The values for the Emax on SALL4, on IKZF1 and on GSPT1 (setting [2]) were below 45%, below 45% and 60 to 95%, respectively.

`CC(NC(=O)c1ccc2c3c(ccnc13)N(C1CCC(=O)NC1=O)C2=O)c1ccccc1` (centres unmarked) [Compound 185, 27-(2,6-dioxo-3-piperidyl)-20-oxo-N-(1-phenylethyl)-24,27-diazatricyclododeca-6,8(15),9(24),13(16),14(17)-pentaene-14-carboxamide]: the DC50 at SALL4 is below 100 nM; at GSPT1 (setting [1]) it was above 100 nM. For the same compound, the Emax is below 45% at SALL4 and 60 to 95% on GSPT1 (setting [2]).

As usually defined, the IC50 is the concentration that gives 50% inhibition. Regarding `N#Cc1ccc(Cc2ccc3c4c(cccc24)N(C2CCC(=O)NC2=O)C3=O)cc1` (centres unmarked) [Compound 66, 4-[[1-(2,6-dioxo-3-piperidyl)-2-oxo-benzo[cd]indol-5-yl]methyl]benzonitrile], the DC50 on SALL4 was 100 to 1000 nM; at IKZF1 it was above 10000 nM; at GSPT1 (293T.114 cells, 24 hours, read-out: HiBiT-Degradation 293T.114 GSPT1 24 hours DC50), above 10000 nM; at GSPT1 (293T.114 cells, 48 hours, read-out: HiBiT-Degradation 293T.114 GSPT1 48 hours DC50), above 10000 nM. Moreover, the Emax at SALL4 was in the range of 45 to 60%; on IKZF1, 60 to 95%; at GSPT1 (293T.114 cells, 24 hours, read-out: HiBiT-Degradation 293T.114 GSPT1 24 hours Emax) it was 60 to 95%; at GSPT1 (293T.114 cells, 48 hours, read-out: HiBiT-Degradation 293T.114 GSPT1 48 hours Emax) it was 60 to 95%. The same compound showed an IC50 on CRBN below 100 nM.

Turning to `O=C1CCC(N2C(=O)c3ccc(N4CCc5ccccc54)c4cccc2c34)C(=O)N1` (centres unmarked) [Compound 209, 3-(5-indolin-1-yl-2-oxo-benzo[cd]indol-1-yl)piperidine-2,6-dione], the DC50 was below 100 nM at SALL4, above 10000 nM at IKZF1 and above 10000 nM at GSPT1 (setting [1]). The Emax was below 45% at SALL4, 60 to 95% on IKZF1 and 60 to 95% at GSPT1 (setting [2]).

Turning to `CC1(n2cc(Cc3ccc4c5c(cccc35)C(=O)N4C3CCC(=O)NC3=O)cn2)CCN(C(=O)C2(C#N)CCCCC2)CC1` (centres unmarked) [Compound 204], the values for the DC50 at SALL4 and on GSPT1 (setting [1]) were below 100 nM and above 10000 nM, respectively. For the same compound, the Emax on SALL4 is below 45%; on GSPT1 (setting [2]) it was 60 to 95%. The compound also came in with an IC50 at CRBN below 100 nM.

As to `O=C1CCC(N2C(=O)c3cc(CNCc4ccco4)cc4cccc2c34)C(=O)N1` (centres unmarked) [Compound 160], at GSPT1 (setting [1]), the DC50 was above 10000 nM. Moreover, the Emax at GSPT1 (setting [2]) was 45 to 60%.

Consider `O=C1CCC(N2C(=O)c3ccc(C4(F)CCN(Cc5ccccc5)CC4)c4nccc2c34)C(=O)N1` (centres unmarked) [Compound 81, 3-[18-(1-benzyl-4-fluoro-4-piperidyl)-24-oxo-27,30-diazatricyclododeca-5(17),6(18),7(19),8(27),20-pentaen-30-yl]piperidine-2,6-dione], for which the DC50 on SALL4 was below 100 nM; on GSPT1 (setting [1]), above 100 nM. Also, the Emax on SALL4 was below 45%; on GSPT1 (setting [2]), 60 to 95%.

Consider `CC1(n2cc(Cc3ccc4c5c(cccc35)C(=O)N4C3CCC(=O)NC3=O)cn2)CCN(C(=O)C2CC2)CC1` (centres unmarked) [Compound 205], for which the DC50 on SALL4 is below 100 nM; at GSPT1 (setting [1]), above 10000 nM. Also, the Emax at SALL4 was below 45%; on GSPT1 (setting [2]), 60 to 95%. This compound registered an IC50 at CRBN below 100 nM.

With `CC1(n2cc(Cc3ccc4c5c(cccc35)C(=O)N4C3CCC(=O)NC3=O)cn2)CCN(c2ncccc2F)CC1` (centres unmarked) [Compound 208, 3-[6-[[1-[1-(3-fluoro-2-pyridyl)-4-methyl-4-piperidyl]pyrazol-4-yl]methyl]-2-oxo-benzo[cd]indol-1-yl]piperidine-2,6-dione], the DC50 at SALL4 is below 100 nM; at GSPT1 (setting [1]), above 10000 nM. Moreover, the Emax on SALL4 was below 45%; on GSPT1 (setting [2]), 60 to 95%.

With `Cc1ccc(CN2CCC(c3ccc4c5c(cccc35)N(C3CCC(=O)NC3=O)C4=O)CC2)cc1F` (centres unmarked) [Compound 176], the DC50 on SALL4 and on GSPT1 (setting [1]) was above 10000 nM throughout. Moreover, the Emax on SALL4 and at GSPT1 (setting [2]) was 60 to 95% each time. The compound further displayed an IC50 at CRBN below 100 nM.

Take `CN1CC(c2ccc3c4c(cccc24)N(C2CCC(=O)NC2=O)C3=O)C1` (centres unmarked) [Compound 90, 3-[5-(1-methylazetidin-3-yl)-2-oxo-benzo[cd]indol-1-yl]piperidine-2,6-dione]: the DC50 is below 100 nM at SALL4 and above 100 nM on GSPT1 (setting [1]). In addition, the Emax at SALL4 is below 45%; at GSPT1 (setting [2]), 60 to 95%.

In the case of `O=C1CCC(N2C(=O)c3ccc(CN4CC(Oc5ccccc5)C4)c4cccc2c34)C(=O)N1` (centres unmarked) [Compound 63, 3-(2-oxo-5-((3-phenoxyazetidin-1-yl)methyl)benzo[cd]indol-1(2H)-yl)piperidine-2,6-dione], the Emax at GSPT1 (read-out: GSPT1 Emax @ 10 μM 24 Hours, 24 hours) is below 45%.

`COc1ncc(CN2CCC(c3ccc4c5c(cccc35)N(C3CCC(=O)NC3=O)C4=O)CC2)cn1` (centres unmarked) [Compound 177]: the DC50 on SALL4 and at GSPT1 (setting [1]) was above 10000 nM throughout. Besides, the maximal response (Emax) on SALL4 and at GSPT1 (setting [2]) was 60 to 95% each time. In addition, the IC50 at CRBN is below 100 nM.

Take `COC(=O)c1ccc(Nc2ccc3cccc4c3c2C(=O)N4C2CCC(=O)NC2=O)cc1` (centres unmarked) [Compound 186, Methyl 4-[[1-(2,6-dioxo-3-piperidyl)-2-oxo-benzo[cd]indol-3-yl]amino]benzoate]: the DC50 at SALL4, on IKZF1 and on GSPT1 (setting [1]) was above 10000 nM in each case. Further, the Emax on SALL4, on IKZF1 and on GSPT1 (setting [2]) was 60 to 95% each time.

Consider `N#CC1(C(=O)N2CCC(n3cc(Cc4ccc5c6c(cccc46)C(=O)N5C4CCC(=O)NC4=O)cn3)CC2)CCC1` (centres unmarked) [Compound 200, 1-[4-[4-[[1-(2,6-dioxo-3-piperidyl)-2-oxo-benzo[cd]indol-6-yl]methyl]pyrazol-1-yl]piperidine-1-carbonyl]cyclobutanecarbonitrile], for which the DC50 at SALL4 is below 100 nM; at GSPT1 (setting [1]), above 10000 nM. In addition, the Emax at SALL4 is below 45%; on GSPT1 (setting [2]), above 95%.

`O=C1CCC(N2C(=O)c3cccc4c(Cc5cnn(C6CCN(C(=O)C7(C(F)(F)F)CCC7)CC6)c5)ccc2c34)C(=O)N1` (centres unmarked) [Compound 201]: the DC50 was below 100 nM at SALL4 and above 10000 nM at GSPT1 (setting [1]). Also, the results for the Emax at SALL4 and at GSPT1 (setting [2]) were below 45% and above 95%, respectively. Also, the IC50 on CRBN was below 100 nM.

Turning to `CN(c1ccc2c3c(cccc13)N(C1CCC(=O)NC1=O)C2=O)C1CCN(Cc2ccccc2)C1` (centres unmarked) [Compound 220], the DC50 at GSPT1 (setting [1]) is above 100 nM. For the same compound, the Emax at GSPT1 (setting [2]) is 60 to 95%.

On to `CC1(n2cc(Cc3ccc4c5c(cccc35)C(=O)N4C3CCC(=O)NC3=O)cn2)CCN(C(=O)C2(C(F)(F)F)CC2)CC1` (centres unmarked) [Compound 203], for which the results for the DC50 on SALL4 and on GSPT1 (setting [1]) were below 100 nM and above 10000 nM, respectively. Moreover, the Emax on SALL4 was below 45%; on GSPT1 (setting [2]) it was 60 to 95%. In addition, the IC50 at CRBN was below 100 nM.
